System: CAL51 cell proliferation
Experiment: Cell Titer Glo Proliferation Assay (CAL51)
Type: cell-based, human
Conditions: CAL51 cell proliferation, 72 h, Cell Titer Glo luminescence; read-out: Act. Level
Summary of the method: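 Viability is measured by CellTiter-Glo luminescence after 72 h of compound exposure. CAL51 cells were seeded in growth medium with 10% FBS and 2 mM glutamine, cultured overnight, then dosed with compound dilutions, vehicle held at 0.2% DMSO.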

SMILES	IC50 [nM]
CNC(=O)c1ccc(Nc2nc(OC3CC3)c3c(-c4ccn(C)n4)c[nH]c3n2)c(OC)c1 [Example 218, 4-(4-cyclopropoxy-5-(1-methyl-1H-pyrazol-3-yl)-7H-pyrrolo[2,3-d]pyrimidin-2-ylamino)-3-methoxy-N-methylbenzamide]	1000 to 10000

Same assay, conditions: Homo sapiens, CAL-51; CAL51 cell proliferation, 72 h, Cell Titer Glo luminescence; read-out: Act. Level

SMILES	IC50 [nM]
CC[C@H](C)Oc1nc(Nc2ccc(C(=O)NC)cc2OC)nc2[nH]cc(-c3ccc4nc(C)oc4c3)c12 [Example 204, (S)-4-(4-sec-butoxy-5-(2-methylbenzo[d]oxazol-6-yl)-7H-pyrrolo[2,3-d]pyrimidin-2-ylamino)-3-methoxy-N-methylbenzamide]	100 to 400
CNC(=O)c1ccc(Nc2nc(O[C@H]3CC[C@](C)(O)CC3)c3c(-c4ccc5nc(C)oc5c4)c[nH]c3n2)c(OC)c1 [Example 205, 4-(4-((1r,4r)-4-hydroxy-4-methylcyclohexyloxy)-5-(2-methylbenzo[d]oxazol-6-yl)-7H-pyrrolo[2,3-d]pyrimidin-2-ylamino)-3-methoxy-N-methylbenzamide]	< 100
CNC(=O)c1ccc(Nc2nc(O[C@H]3CC[C@@](C)(O)CC3)c3c(-c4ccc5nc(C)oc5c4)c[nH]c3n2)c(OC)c1 [Example 206, 4-(4-((1s,4s)-4-hydroxy-4-methylcyclohexyloxy)-5-(2-methylbenzo[d]oxazol-6-yl)-7H-pyrrolo[2,3-d]pyrimidin-2-ylamino)-3-methoxy-N-methylbenzamide]	< 100
CNC(=O)c1ccc(Nc2nc(OC3CCOCC3)c3c(-c4ccc(-c5nc(C)c[nH]5)cc4)c[nH]c3n2)c(OC)c1 [Example 207, 3-methoxy-N-methyl-4-(5-(4-(4-methyl-1H-imidazol-2-yl)phenyl)-4-(tetrahydro-2H-pyran-4-yloxy)-7H-pyrrolo[2,3-d]pyrimidin-2-ylamino)benzamide]	< 100
CNC(=O)c1ccc(Nc2nc(O[C@H]3CCOC3)c3c(-c4cnn(C)c4)c[nH]c3n2)c(C(C)C)c1 [Example 208, (S)-3-isopropyl-N-methyl-4-(5-(1-methyl-1H-pyrazol-4-yl)-4-(tetahydrofuran-3-yloxy)-7H-pyrrolo[2,3-d]pyrimidin-2-ylamino)benzamide]	100 to 400
CNC(=O)c1ccc(Nc2nc(O[C@H]3CCOC3)c3c(-c4ccc5nc(C)oc5c4)c[nH]c3n2)c(C(C)C)c1 [Example 209, (S)-3-isopropyl-N-methyl-4-(5-(2-methylbenzo[d]oxazol-6-yl)-4-(tetrahydrofuran-3-yloxy)-7H-pyrrolo[2,3-d]pyrimidin-2-ylamino)benzamide]	1000 to 10000
CNC(=O)c1ccc(Nc2nc(NC3CCOCC3)c3c(-c4cnn(C)c4)c[nH]c3n2)c(OC)c1 [Example 210, 3-methoxy-N-methyl-4-(5-(1-methyl-1H-pyrazol-4-yl)-4-(tetrahydro-2H-pyran-4-ylamino)-7H-pyrrolo[2,3-d]pyrimidin-2-ylamino)benzamide]	< 100
CNC(=O)c1ccc(Nc2nc(NC3CC3)c3c(-c4cnn(C)c4)c[nH]c3n2)c(OC)c1 [Example 211, 4-(4-(cyclopropylamino)-5-(1-methyl-1H-pyrazol-4-yl)-7H-pyrrolo[2,3-d]pyrimidin-2-ylamino)-3-methoxy-N-methylbenzamide]	100 to 400
CNC(=O)c1ccc(Nc2nc(NC3CC3)c3c(-c4ccc5nc(C)oc5c4)c[nH]c3n2)c(OC)c1 [Example 212, 4-(4-(cyclopropylamino)-5-(2-methylbenzo[d]oxazol-6-yl)-7H-pyrrolo[2,3-d]pyrimidin-2-ylamino)-3-methoxy-N-methylbenzamide]	100 to 400
COc1cc(C(=O)NCCO)ccc1Nc1nc(OC2CCOCC2)c2c(-c3ccc4nc(C)oc4c3)c[nH]c2n1 [Example 213, N-(2-hydroxyethyl)-3-methoxy-4-(5-(2-methylbenzo[d]oxazol-6-yl)-4-(tetrahydro-2H-pyran-4-yloxy)-7H-pyrrolo[2,3-d]pyrimidin-2-ylamino)benzamide]	< 100
COc1cc(C(=O)N[C@H](C)CO)ccc1Nc1nc(OC2CCCC2)c2c(-c3ccc4nc(C)oc4c3)c[nH]c2n1 [Example 214, (R)-4-(4-(cyclopentyloxy)-5-(2-methylbenzo[d]oxazol-6-yl)-7H-pyrrolo[2,3-d]pyrimidin-2-ylamino)-N-(1-hydroxypropan-2-yl)-3-methoxybenzamide]	< 100
COc1cc(C(=O)N[C@@H](C)CO)ccc1Nc1nc(OC2CCCC2)c2c(-c3ccc4nc(C)oc4c3)c[nH]c2n1 [Example 215, (S)-4-(4-(cyclopentyloxy)-5-(2-methylbenzo[d]oxazol-6-yl)-7H-pyrrolo[2,3-d]pyrimidin-2-ylamino)-N-(1-hydroxypropan-2-yl)-3-methoxybenzamide]	< 100
COc1cc(C(=O)NCCO)ccc1Nc1nc(OC2CC2)c2c(-c3ccc4nc(C)oc4c3)c[nH]c2n1 [Example 216, 4-(4-cyclopropoxy-5-(2-methylbenzo[d]oxazol-6-yl)-7H-pyrrolo[2,3-d]pyrimidin-2-ylamino)-N-(2-hydroxyethyl)-3-methoxybenzamide]	< 100
COc1cc(C(=O)NCCO)ccc1Nc1nc(OC2CC2)c2c(-c3cnn(C)c3)c[nH]c2n1 [Example 217, 4-(4-cyclopropoxy-5-(1-methyl-1H-pyrazol-4-yl)-7H-pyrrolo[2,3-d]pyrimidin-2-ylamino)-N-(2-hydroxyethyl)-3-methoxybenzamide]	100 to 400
CNS(=O)(=O)c1ccc(Nc2nc(OC3CCOCC3)c3c(-c4ccc5nc(C)oc5c4)c[nH]c3n2)c(OC)c1 [Example 219, 3-methoxy-N-methyl-4-(5-(2-methylbenzo[d]oxazol-6-yl)-4-(tetrahydro-2H-pyran-4-yloxy)-7H-pyrrolo[2,3-d]pyrimidin-2-ylamino)benzenesulfonamide]	100 to 400
CNC(=O)c1ccc(Nc2nc(OC(C)C)c3c(-c4ccn(C)n4)c[nH]c3n2)c(OC)c1 [Example 220, 4-(4-isopropoxy-5-(1-methyl-1H-pyrazol-3-yl)-7H-pyrrolo[2,3-d]pyrimidin-2-ylamino)-3-methoxy-N-methylbenzamide]	1000 to 10000
COCCOc1nc(Nc2ccc(C(=O)N(C)C)cc2OC)nc2[nH]cc(-c3cnn(C)c3)c12 [Example 221, 3-methoxy-4-(4-(2-methoxyethoxy)-5-(1-methyl-1H-pyrazol-4-yl)-7H-pyrrolo[2,3-d]pyrimidin-2-ylamino)-N,N-dimethylbenzamide]	< 100
COc1cc(C(=O)N(C)C)ccc1Nc1nc(O[C@@H]2CCOC2)c2c(-c3ccc4nc(C)oc4c3)c[nH]c2n1 [Example 222, (R)-3-methoxy-N,N-dimethyl-4-(5-(2-methylbenzo[d]oxazol-6-yl)-4-(tetrahydrofuran-3-yloxy)-7H-pyrrolo[2,3-d]pyrimidin-2-ylamino)benzamide]	< 100
CNC(=O)c1ccc(Nc2nc(OC3CCOCC3)c3c(-c4ccc5nc(C)sc5c4)c[nH]c3n2)c(OC)c1 [Example 223, 3-methoxy-N-methyl-4-(5-(2-methylbenzo[d]thiazol-6-yl)-4-(tetrahydro-2H-pyran-4-yloxy)-7H-pyrrolo[2,3-d]pyrimidin-2-ylamino)benzamide]	< 100
COc1cc(C(=O)NC(C)(C)C)ccc1Nc1nc(OC2CCCC2)c2c(-c3ccc4nc(C)oc4c3)c[nH]c2n1 [Example 224, N-tert-butyl-4-(4-(cyclopentyloxy)-5-(2-methylbenzo[d]oxazol-6-yl)-7H-pyrrolo[2,3-d]pyrimidin-2-ylamino)-3-methoxybenzamide]	100 to 400
CNC(=O)c1ccc(Nc2nc(O[C@H]3CCOC3)c3c(-c4ccnn4C)c[nH]c3n2)c(C(C)C)c1 [Example 225, (S)-3-isopropyl-N-methyl-4-(5-(1-methyl-1H-pyrazol-5-yl)-4-(tetrahydrofuran-3-yloxy)-7H-pyrrolo[2,3-d]pyrimidin-2-ylamino)benzamide]	1000 to 10000
CNC(=O)c1ccc(Nc2nc(OC(C)C)c3c(-c4ccnn4C)c[nH]c3n2)c(OC)c1 [Example 226, 4-(4-isopropoxy-5-(1-methyl-1H-pyrazol-5-yl)-7H-pyrrolo[2,3-d]pyrimidin-2-ylamino)-3-methoxy-N-methylbenzamide]	1000 to 10000
COc1cc(-c2cnn(C)c2)ccc1Nc1nc(OC2CCCC2)c2c(-c3ccc4nc(C)oc4c3)c[nH]c2n1 [Example 227, 4-(cyclopentyloxy)-N-(2-methoxy-4-(1-methyl-1H-pyrazol-4-yl)phenyl)-5-(2-methylbenzo[d]oxazol-6-yl)-7H-pyrrolo[2,3-d] pyrimidin-2-amine]	100 to 400
COc1cc(-n2cccn2)ccc1Nc1nc(OC2CCCC2)c2c(-c3ccc4nc(C)oc4c3)c[nH]c2n1 [Example 228, 4-(cyclopentyloxy)-N-(2-methoxy-4-(1H-pyrazol-1-yl)phenyl)-5-(2-methylbenzo[d]oxazol-6-yl)-7H-pyrrolo[2,3-d]pyrimidin-2-amine]	100 to 400
COc1cc(C(=O)NC2CCCC2)ccc1Nc1nc(OC2CCCC2)c2c(-c3ccc4nc(C)oc4c3)c[nH]c2n1 [Example 229, N-cyclopentyl-4-(4-(cyclopentyl-oxy)-5-(2-methylbenzo[d]oxazol-6-yl)-7H-pyrrolo[2,3-d]pyrimidin-2-ylamino)-3-methoxybenzamide]	400 to 1000
COc1cc(C(=O)NC[C@@H](C)O)ccc1Nc1nc(OC2CCCC2)c2c(-c3ccc4nc(C)oc4c3)c[nH]c2n1 [Example 230, (R)-4-(4-(cyclopentyloxy)-5-(2-methylbenzo[d]oxazol-6-yl)-7H-pyrrolo[2,3-d]pyrimidin-2-ylamino)-N-(2-hydroxypropyl)-3-methoxybenzamide]	100 to 400
COc1cc(C(=O)N2CCC(O)CC2)ccc1Nc1nc(OC2CCCC2)c2c(-c3ccc4nc(C)oc4c3)c[nH]c2n1 [Example 231, (4-(4-(cyclopentyloxy)-5-(2-methylbenzo[d]oxazol-6-yl)-7H-pyrrolo[2,3-d]pyrimidin-2-ylamino)-3-methoxyphenyl)(4-hydroxy-piperidin-1-yl)methanone]	< 100
COc1cc(C(=O)NCCCO)ccc1Nc1nc(OC2CCCC2)c2c(-c3ccc4nc(C)oc4c3)c[nH]c2n1 [Example 232, 4-(4-(cyclopentyloxy)-5-(2-methylbenzo[d]oxazol-6-yl)-7H-pyrrolo[2,3-d]pyrimidin-2-ylamino)-N-(3-hydroxypropyl)-3-methoxybenzamide]	< 100

From patent publication US9346812B2, “Substituted pyrrolopyrimidine compounds, compositions thereof, and methods of treatment therewith” (Signal Pharmaceutical LLC, priority 2013, dated 2016)
